Test results as given in patent US9566312B2, “Cyclic peptides and use as medicines” (priority 2012, dated 2017).
Read-outs that look alike come from different tables or passages of the source. Starred links: 1 amine or outer side, 2 acyl side, 3 side chain; linkers in the order of their positions; H or OH if unused. Non-standard residues stand in square brackets, D forms with d. Residues, ends and D or L forms follow the SMILES beside them. NMeAbu(3S-Me,4-OC2H4Mor) = CN[C@H](C(=O)O)[C@H](C)COCCN1CCOCC1; X16 = C[C@H](CN1CCN(S(C)(=O)=O)CC1)[C@@H](C(=O)[*:2])N(C)[*:1]; X7 = C[C@H](COCCN1CCS(=O)(=O)CC1)[C@@H](C(=O)[*:2])N(C)[*:1]; X79 = COCCN1CCN(CC[C@@H](C)[C@@H](C(=O)[*:2])N(C)[*:1])CC1; X19 = COCCN1CCN(C[C@H](C)[C@@H](C(=O)[*:2])N(C)[*:1])CC1; NMe(dihydroBmt) = CCCC[C@@H](C)[C@@H](O)[C@H](NC)C(=O)O; X20 = C[C@H](CCCN1CCOCC1)[C@@H](C(=O)[*:2])N(C)[*:1]; X4 = C[C@H](CS(C)(=O)=O)[C@@H](C(=O)[*:2])N(C)[*:1]; MeBmt = C/C=C/C[C@@H](C)[C@@H](O)[C@H](NC)C(=O)O; X77 = COC[C@H](C)[C@@H](C(=O)[*:2])N(C)[*:1]; NMeL = CN[C@@H](CC(C)C)C(=O)O; NMeV = CN[C@H](C(=O)O)C(C)C; dNMeA = CN[C@H](C)C(=O)O; Abu = CC[C@H](N)C(=O)O

Key:
[1] = target: cyclophilin B (CypB) (Homo sapiens (Human), UniProt P23284); assay: Inhibitor binding to cyclophilin proteins by SPR, CypB; parameters: unit not given here; conditions: 1:1 binding model
Sequence of cyclophilin B (CypB) (P23284 34-216): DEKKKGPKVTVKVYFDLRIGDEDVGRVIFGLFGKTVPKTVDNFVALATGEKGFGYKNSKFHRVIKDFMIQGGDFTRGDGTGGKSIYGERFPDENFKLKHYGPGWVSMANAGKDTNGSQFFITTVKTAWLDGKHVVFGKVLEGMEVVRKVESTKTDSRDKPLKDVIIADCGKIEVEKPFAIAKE
Outline: (§1)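 Mono-biotinylated avi-tagged cyclophilins captured on a Biotin CAPture chip. Single-cycle kinetics at 50 μL/min, 1 min contacts, 10 min final dissociation, in 10 mM HEPES pH 7.4, 150 mM NaCl, 0.05% P20, 3% DMSO. kon, koff and KD from a 1:1 binding model.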

[2] = target: CypF (Homo sapiens (Human), UniProt P30405); assay: Inhibitor binding to cyclophilin proteins by SPR, CypF; conditions: 1:1 binding model
Sequence of CypF (P30405 30-207): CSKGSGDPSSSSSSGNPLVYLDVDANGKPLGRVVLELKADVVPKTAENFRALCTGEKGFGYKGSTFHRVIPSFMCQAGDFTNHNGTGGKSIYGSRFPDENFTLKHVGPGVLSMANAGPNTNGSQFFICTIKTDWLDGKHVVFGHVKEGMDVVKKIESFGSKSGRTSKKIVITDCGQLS
Outline: as §1

[3] = target: Human MRP2 (Homo sapiens (Human), UniProt Q92887); assay: MRP2 transporter vesicle assay; assay type: in vitro ADME
Sequence of Human MRP2 (Q92887 whole entry): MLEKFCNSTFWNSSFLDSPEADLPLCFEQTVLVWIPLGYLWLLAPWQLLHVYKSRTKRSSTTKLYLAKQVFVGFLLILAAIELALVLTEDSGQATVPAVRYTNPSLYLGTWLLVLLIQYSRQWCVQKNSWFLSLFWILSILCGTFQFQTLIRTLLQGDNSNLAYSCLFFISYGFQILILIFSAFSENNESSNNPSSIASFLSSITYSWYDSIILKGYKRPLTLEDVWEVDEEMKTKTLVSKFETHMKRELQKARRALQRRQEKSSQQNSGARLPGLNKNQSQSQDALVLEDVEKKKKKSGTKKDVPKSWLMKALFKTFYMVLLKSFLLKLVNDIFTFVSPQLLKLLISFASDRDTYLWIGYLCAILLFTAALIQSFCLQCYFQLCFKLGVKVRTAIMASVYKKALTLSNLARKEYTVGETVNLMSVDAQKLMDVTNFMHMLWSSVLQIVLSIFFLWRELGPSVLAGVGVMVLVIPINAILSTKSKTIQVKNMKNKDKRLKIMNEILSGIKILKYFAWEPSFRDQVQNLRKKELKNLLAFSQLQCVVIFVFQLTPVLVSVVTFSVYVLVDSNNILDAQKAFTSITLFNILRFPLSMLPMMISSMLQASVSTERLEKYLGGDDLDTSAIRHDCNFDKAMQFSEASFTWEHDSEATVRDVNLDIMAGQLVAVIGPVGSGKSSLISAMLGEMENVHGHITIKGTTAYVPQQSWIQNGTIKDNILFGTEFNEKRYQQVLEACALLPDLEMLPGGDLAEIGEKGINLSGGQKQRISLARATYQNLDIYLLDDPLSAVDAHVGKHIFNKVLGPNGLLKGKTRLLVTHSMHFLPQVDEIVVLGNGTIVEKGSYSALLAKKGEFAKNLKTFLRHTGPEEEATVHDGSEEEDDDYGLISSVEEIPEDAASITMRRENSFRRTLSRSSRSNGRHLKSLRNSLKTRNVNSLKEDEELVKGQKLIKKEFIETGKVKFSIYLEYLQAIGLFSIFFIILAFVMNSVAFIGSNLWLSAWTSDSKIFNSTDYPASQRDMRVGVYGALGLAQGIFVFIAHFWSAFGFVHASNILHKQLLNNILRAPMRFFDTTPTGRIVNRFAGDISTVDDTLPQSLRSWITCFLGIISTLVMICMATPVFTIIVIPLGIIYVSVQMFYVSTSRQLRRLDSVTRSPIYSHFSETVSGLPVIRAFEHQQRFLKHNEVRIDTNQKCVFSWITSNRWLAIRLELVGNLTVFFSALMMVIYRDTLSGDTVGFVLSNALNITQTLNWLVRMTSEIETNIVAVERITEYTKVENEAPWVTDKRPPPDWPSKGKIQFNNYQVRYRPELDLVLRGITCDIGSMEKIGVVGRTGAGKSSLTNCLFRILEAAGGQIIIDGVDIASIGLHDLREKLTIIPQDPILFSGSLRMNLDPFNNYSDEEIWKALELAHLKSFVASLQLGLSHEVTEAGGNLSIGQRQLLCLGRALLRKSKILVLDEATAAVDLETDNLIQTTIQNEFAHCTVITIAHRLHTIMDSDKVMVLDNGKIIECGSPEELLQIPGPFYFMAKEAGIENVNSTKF
Procedure: Method 4: Measuring Hepatic Transporter Interactions […] […] MRP2 Assay: Human MRP2 inhibition was tested using a BD Gentest Transporter Vesicle Assay Kit. Inside-out vesicles were prepared from insect Sf9 cells infected with baculovirus expressing hMRP2. […] The percent remaining of ATP dependent uptake activity was calculated as uptake activity in the presence of inhibitor divided by the uptake activity in the absence of inhibitor.

[4] = tested on: peripheral blood mononuclear cells (PBMC); assay: Anti-proliferative or immunosuppressive activity, BrdU incorporation in PHA-stimulated PBMC; assay type: cell-based; conditions: PHA 3 μg/ml, 60 hour compound treatment; read-out: EMV PBMC IC50
Outline: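 Fresh PBMCs from two donors, 30,000 per well in X-VIVO 15 medium, stimulated with 3 μg/ml PHA to drive T-cell proliferation. Proliferation measured as BrdU incorporation into DNA by BrdU ELISA.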

[5] = target: organic anion transporting polypeptide 1B1 (OATP1B1) (Homo sapiens (Human), UniProt Q9Y6L6); assay: OATP assay in CHO-OATP1B1 cells;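 further: inhibition of probe substrate uptake into the cells, ten minutes exposure, accumulated substrate read by fluorescence once cells were lysed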
Sequence of organic anion transporting polypeptide 1B1 (OATP1B1) (Q9Y6L6 whole entry): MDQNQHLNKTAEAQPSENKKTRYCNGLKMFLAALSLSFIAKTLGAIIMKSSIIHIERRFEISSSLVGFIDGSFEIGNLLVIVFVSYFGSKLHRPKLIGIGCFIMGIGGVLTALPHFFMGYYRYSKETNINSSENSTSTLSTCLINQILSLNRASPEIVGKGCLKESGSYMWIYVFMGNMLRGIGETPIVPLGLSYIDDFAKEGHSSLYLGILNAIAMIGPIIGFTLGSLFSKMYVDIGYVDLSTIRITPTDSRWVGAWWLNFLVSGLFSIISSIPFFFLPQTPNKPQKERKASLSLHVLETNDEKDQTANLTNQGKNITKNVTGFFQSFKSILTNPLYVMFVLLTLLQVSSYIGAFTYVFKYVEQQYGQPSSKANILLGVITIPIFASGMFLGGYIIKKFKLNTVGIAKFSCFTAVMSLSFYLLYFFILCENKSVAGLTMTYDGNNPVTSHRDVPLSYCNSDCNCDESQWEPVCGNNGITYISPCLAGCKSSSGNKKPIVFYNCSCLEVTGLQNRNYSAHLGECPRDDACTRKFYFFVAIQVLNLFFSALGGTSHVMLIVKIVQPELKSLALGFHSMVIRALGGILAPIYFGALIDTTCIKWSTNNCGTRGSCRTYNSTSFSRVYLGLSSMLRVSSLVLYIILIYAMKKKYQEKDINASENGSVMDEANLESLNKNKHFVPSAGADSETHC

[6] = target: cyclophilin A (CypA) (Homo sapiens (Human), UniProt P62937); assay: Inhibitor binding to cyclophilin proteins by SPR, CypA; parameters: unit not given here; conditions: 1:1 binding model;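 further: Single-cycle kinetics on a Biacore T200, compound injected at several concentrations for 1 min each at 50 µL/min, then 10 min dissociation, in HEPES pH 7.4 buffer with 3% DMSO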
Sequence of cyclophilin A (CypA) (P62937 whole entry): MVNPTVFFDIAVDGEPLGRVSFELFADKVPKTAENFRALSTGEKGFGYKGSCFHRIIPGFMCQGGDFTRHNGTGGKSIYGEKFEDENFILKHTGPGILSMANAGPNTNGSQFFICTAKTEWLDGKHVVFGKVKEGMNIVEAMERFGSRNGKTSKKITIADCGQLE

[7] = tested on: genotype 1b subgenomic HCV replicon in Huh7.5 cells; assay type: cell-based, hepatitis C virus; conditions: read-out: RPLN-1b IC50
Outline: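 Huh7.5 cells carrying genotype 1b subgenomic HCV replicon with renilla luciferase-neomycin reporter, in phenol red-free DMEM without G418. Luciferase measured after 72 h compound exposure relative to DMSO-treated cells; cytotoxicity (CC50) by Cell Titer-Glo.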

[8] = target: CYP3A4 (Homo sapiens (Human), UniProt P08684); assay: Time-dependent inhibition of CYP3A4; conditions: for NIM TDI kinact/Ki: probe substrate midazolam;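 on all read-outs here: Two-step in vitro assay, kobs derived from residual CYP3A4 activity versus preincubation time per concentration, then kinact and KI by nonlinear fit of kobs against concentration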
Sequence of CYP3A4 (P08684 whole entry): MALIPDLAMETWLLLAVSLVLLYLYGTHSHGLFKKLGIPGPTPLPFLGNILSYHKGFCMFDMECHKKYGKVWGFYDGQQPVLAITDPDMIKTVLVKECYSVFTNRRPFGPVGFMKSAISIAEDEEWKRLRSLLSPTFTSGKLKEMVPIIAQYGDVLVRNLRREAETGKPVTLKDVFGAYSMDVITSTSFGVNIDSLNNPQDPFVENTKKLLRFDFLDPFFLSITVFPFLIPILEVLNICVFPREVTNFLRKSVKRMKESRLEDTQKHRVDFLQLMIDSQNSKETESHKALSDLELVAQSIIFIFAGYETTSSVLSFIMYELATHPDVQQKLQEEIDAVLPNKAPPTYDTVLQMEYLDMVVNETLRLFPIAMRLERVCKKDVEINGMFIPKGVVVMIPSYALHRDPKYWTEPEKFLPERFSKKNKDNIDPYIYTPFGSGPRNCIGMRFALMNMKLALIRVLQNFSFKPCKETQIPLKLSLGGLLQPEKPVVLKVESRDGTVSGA

[9] = genotype 1b replicon, 72 h incubation

| SMILES | CypB Kd [1] | CypF Kd [2] | IC50 [3] | IC50 [4] | IC50 [5] | CypA Kd [6] | IC50 [7, 9] | Ki [8] | IC50 [7] | NIM TDI kinact/Ki [8] |
| --- | --- | --- | --- | --- | --- | --- | --- | --- | --- | --- |
| C/C=C/C[C@@H](C)[C@@H](O)[C@H]1C(=O)N[C@@H](CC)C(=O)N(C)[C@H](C)C(=O)N(C)[C@@H]([C@H](C)COCCOC(=O)N2CCN(C)CC2)C(=O)N[C@@H](C(C)C)C(=O)N(C)[C@@H](CC(C)C)C(=O)N[C@@H](C)C(=O)N[C@H](C)C(=O)N(C)[C@@H](CC(C)C)C(=O)N(C)[C@@H](CC(C)C)C(=O)N(C)[C@@H](C(C)C)C(=O)N1C (stereo in doubt) [Compound 2.9, 3-[D-Ala]-4-[(2S,3S)-3-methyl-2-(methylamino)-4-(2-((4-methylpiperazine-1-carbonyl)oxy)ethoxy)butanoyl]-cyclosporin] | 0.5 | 0.0004 µM | 30 µM | 13.3 µM | 8.7 µM | 0.9 | 0.058 µM | > 50 µM |  |  |
| C/C=C/C[C@@H](C)[C@@H](O)[C@H]1C(=O)N[C@@H](CC)C(=O)N(C)[C@H](C)C(=O)N(C)[C@@H]([C@H](C)COC)C(=O)N[C@@H](C(C)C)C(=O)N(C)[C@@H](CC(C)C)C(=O)N[C@@H](C)C(=O)N[C@H](C)C(=O)N(C)[C@@H](CC(C)C)C(=O)N(C)[C@@H](CC(C)C)C(=O)N(C)[C@@H](C(C)C)C(=O)N1C [Compound 2.1, 3-[D-Ala]-4-[(2S,3S)-4-methoxy-3-methyl-2-(methylamino)butanoyl]-cyclosporin] | 1.45 | 0.0013 µM | 14 µM | 10.6 µM | 5.1 µM | 2.05 | 0.029 µM | > 50 µM |  |  |
| C/C=C/C[C@@H](C)[C@@H](O)[C@H]1C(=O)N[C@@H](CC)C(=O)N(C)[C@H](C)C(=O)N(C)[C@@H]([C@@H](C)COC)C(=O)N[C@@H](C(C)C)C(=O)N(C)[C@@H](CC(C)C)C(=O)N[C@@H](C)C(=O)N[C@H](C)C(=O)N(C)[C@@H](CC(C)C)C(=O)N(C)[C@@H](CC(C)C)C(=O)N(C)[C@@H](C(C)C)C(=O)N1C [Compound 2.2, 3-[D-Ala]-4-[(2S,3R)-4-methoxy-3-methyl-2-(methylamino)butanoyl]-cyclosporin] (cyclo(A[dA][NMeL][NMeL][NMeV][MeBmt][Abu][dNMeA][X77]V[NMeL])) | 0.8 | 0.0008 µM | 15 µM | 12.6 µM | 1.9 µM | 1.7 |  |  | 0.048 µM | 5 M⁻¹ s⁻¹ |
| C/C=C/C[C@@H](C)[C@@H](O)[C@H]1C(=O)N[C@@H](CC)C(=O)N(C)[C@H](C)C(=O)N(C)[C@@H]([C@H](C)CS(C)(=O)=O)C(=O)N[C@@H](C(C)C)C(=O)N(C)[C@@H](CC(C)C)C(=O)N[C@@H](C)C(=O)N[C@H](C)C(=O)N(C)[C@@H](CC(C)C)C(=O)N(C)[C@@H](CC(C)C)C(=O)N(C)[C@@H](C(C)C)C(=O)N1C [Compound 2.4, 3-[D-Ala]-4-[(2S,3S)-3-methyl-2-(methylamino)-4-(methylsulfonyl)butanoyl]-cyclosporin] (cyclo(A[dA][NMeL][NMeL][NMeV][MeBmt][Abu][dNMeA][X4]V[NMeL])) | 0.6 | 0.0006 µM | 9 µM | 1.9 µM | 1.4 µM | 1.5 | 0.095 µM | > 50 µM |  |  |
| C/C=C/C[C@@H](C)[C@@H](O)[C@H]1C(=O)N[C@@H](CC)C(=O)N(C)[C@H](C)C(=O)N(C)[C@@H]([C@H](C)CN2CCN(S(C)(=O)=O)CC2)C(=O)N[C@@H](C(C)C)C(=O)N(C)[C@@H](CC(C)C)C(=O)N[C@@H](C)C(=O)N[C@H](C)C(=O)N(C)[C@@H](CC(C)C)C(=O)N(C)[C@@H](CC(C)C)C(=O)N(C)[C@@H](C(C)C)C(=O)N1C [Compound 2.5.5, 3-[D-Ala]-4-[(2S,3R)-3-methyl-2-(methylamino)-4-(4-(methylsulfonyl)piperazin-1-yl)butanoyl]-cyclosporin] (cyclo(A[dA][NMeL][NMeL][NMeV][MeBmt][Abu][dNMeA][X16]V[NMeL])) | 1.9 | 0.0017 µM | 13 µM | 2.8 µM | 4.8 µM | 3.3 | 0.066 µM |  |  |  |
| C/C=C/C[C@@H](C)[C@@H](O)[C@H]1C(=O)N[C@@H](CC)C(=O)N(C)[C@H](C)C(=O)N(C)[C@@H]([C@H](C)COCCN2CCOCC2)C(=O)N[C@@H](C(C)C)C(=O)N(C)[C@@H](CC(C)C)C(=O)N[C@@H](C)C(=O)N[C@H](C)C(=O)N(C)[C@@H](CC(C)C)C(=O)N(C)[C@@H](CC(C)C)C(=O)N(C)[C@@H](C(C)C)C(=O)N1C [Compound 2.8.1, 3-[D-Ala]-4-[(2S,3S)-3-methyl-2-(methylamino)-4-(2-morpholinoethoxy)butanoyl]-cyclosporin] (cyclo(A[dA][NMeL][NMeL][NMeV][MeBmt][Abu][dNMeA][NMeAbu(3S-Me,4-OC2H4Mor)]V[NMeL])) | 0.7 | 0.0007 µM | 23 µM |  | 7.6 µM | 1.4 |  | > 50 µM |  |  |
| C/C=C/C[C@@H](C)[C@@H](O)[C@H]1C(=O)N[C@@H](CC)C(=O)N(C)[C@H](C)C(=O)N(C)[C@@H]([C@H](C)COCCN2CCS(=O)(=O)CC2)C(=O)N[C@@H](C(C)C)C(=O)N(C)[C@@H](CC(C)C)C(=O)N[C@@H](C)C(=O)N[C@H](C)C(=O)N(C)[C@@H](CC(C)C)C(=O)N(C)[C@@H](CC(C)C)C(=O)N(C)[C@@H](C(C)C)C(=O)N1C [Compound 2.8.2] (cyclo(A[dA][NMeL][NMeL][NMeV][MeBmt][Abu][dNMeA][X7]V[NMeL])) | 0.6 | 0.0006 µM | 28 µM |  | 3 µM | 1.6 |  |  |  |  |
| CCCC[C@@H](C)[C@@H](O)[C@H]1C(=O)N[C@@H](CC)C(=O)N(C)[C@H](C)C(=O)N(C)[C@@H]([C@@H](C)CN2CCN(CCOC)CC2)C(=O)N[C@@H](C(C)C)C(=O)N(C)[C@@H](CC(C)C)C(=O)N[C@@H](C)C(=O)N[C@H](C)C(=O)N(C)[C@@H](CC(C)C)C(=O)N(C)[C@@H](CC(C)C)C(=O)N(C)[C@@H](C(C)C)C(=O)N1C [Compound 2.17.6, 1-dihydro-3-[D-Ala]-4[(2S,3S)-2-Amino-4-[4-(2-methoxy-ethyl)-piperazin-1-yl]-3-methyl-butanoyl]-cyclosporin] (cyclo(A[dA][NMeL][NMeL][NMeV][NMe(dihydroBmt)][Abu][dNMeA][X19]V[NMeL])) | 0.6 | 0.0005 µM |  | 14.6 µM | 3.3 µM | 0.9 | 0.02 µM | > 50 µM |  |  |
| C/C=C/C[C@@H](C)[C@@H](O)[C@H]1C(=O)N[C@@H](CC)C(=O)N(C)[C@H](C)C(=O)N(C)[C@@H]([C@H](C)CCN2CCN(CCOC)CC2)C(=O)N[C@@H](C(C)C)C(=O)N(C)[C@@H](CC(C)C)C(=O)N[C@@H](C)C(=O)N[C@H](C)C(=O)N(C)[C@@H](CC(C)C)C(=O)N(C)[C@@H](CC(C)C)C(=O)N(C)[C@@H](C(C)C)C(=O)N1C [Compound 2.18.3, 3-[D-Ala]-4-[(2S,3R)-5-(4-(2-methoxyethyl)piperazin-1-yl)-3-methyl-2-(methylamino)pentanoyl]-cyclosporin] (cyclo(A[dA][NMeL][NMeL][NMeV][MeBmt][Abu][dNMeA][X79]V[NMeL])) | 0.6 | 0.0005 µM |  | 11.1 µM | 9.1 µM | 0.9 | 0.073 µM | > 50 µM |  |  |
| C/C=C/C[C@@H](C)[C@@H](O)[C@H]1C(=O)N[C@@H](CC)C(=O)N(C)[C@H](C)C(=O)N(C)[C@@H]([C@H](C)CCCN2CCOCC2)C(=O)N[C@@H](C(C)C)C(=O)N(C)[C@@H](CC(C)C)C(=O)N[C@@H](C)C(=O)N[C@H](C)C(=O)N(C)[C@@H](CC(C)C)C(=O)N(C)[C@@H](CC(C)C)C(=O)N(C)[C@@H](C(C)C)C(=O)N1C [Compound 2.19.1, 3-[D-Ala]-4-[(2S,3R)-3-methyl-2-(methylamino)-6-morpholinohexanoyl]-cyclosporin] (cyclo([MeBmt][Abu][dNMeA][X20]V[NMeL]A[dA][NMeL][NMeL][NMeV])) | 0.5 | 0.0005 µM |  | 16.6 µM | 6.9 µM | 0.9 |  |  | 0.038 µM | 17 M⁻¹ s⁻¹ |
